Data published in patent US12221426B2, “Inhibitory material against human body-derived nicotinamide adenine dinucleotide phosphate-dependent steroid dehydrogenase-like, and anticancer agent comprising same as effective ingredient or pharmaceutical composition comprising same as effective ingredient for treatment of hyperlipidemia” (SEOUL NATIONAL UNIVERSITY R&DB FOUNDATION, priority 2018, dated 2025).

Each compound was assayed against Human-derived nicotinamide adenine dinucleotide phosphate-dependent steroid dehydrogenase (NSDHL) (Homo sapiens (Human), UniProt Q15738) (assay: NSDHL inhibitory activity evaluation: decrease of NADH fluorescence amplification when inhibitor releases NADH from NSDHL). Details: recombinant NSDHL (16 μM, 50 μl) + NADH (50 μM, 50 μl), room temperature 10 min, Ex 340 nm/Em 460 nm, 96-well plate.
Assay type: binding
Protocol: In order to evaluate the nicotinamide adenine dinucleotide phosphate-dependent steroid dehydrogenase (NSDHL) inhibitory activity of the compound provided in one aspect of the present invention, the following experiment was performed.
Human-derived nicotinamide adenine dinucleotide phosphate-dependent steroid dehydrogenase (NADP-dependent steroid dehydrogenase-like; NSDHL) was expressed in large quantities in E. coli. The NSDHL gene was inserted into pET21a plasmid, which was cloned into E. coli C41 (DE3). After culturing E. coli in Luria Broth medium at 37° C., IPTG was added thereto at the time when OD600 was about 0.7 to express NSDHL, followed by culture at 37° C. for 4 hours.
The cultured E. coli was centrifuged, and the cells were stored at −80° C. The cells were crushed by sonification, which was first purified using IMAC (Immobilized metallo-affinity chromatography), and then finally purified using SEC (Size exclusion chromatography). The composition of the buffer solution for storing NSDHL was as follows: 40 mM HEPES (pH 8.0), 150 mM NaCl, and 0.5 mM TCEP.
When dehydrogenase binds to NADH, fluorescence intensity is amplified compared to NADH alone. In other words, if the dehydrogenase, NSDHL, is treated with an inhibitor in a state in which it is bound to NADH, the fluorescence intensity will be reduced because NADH is released. FIG. 1 is a graph showing the results of measuring the fluorescence intensity of NADH according to the concentration of NSDHL.
In addition, it was also confirmed in FIG. 2 that an experiment for inhibiting was possible using NAD+, which is an oxidized form of NADH, but is not measured in the fluorescence measurement range of NADH. FIG. 2 is a graph showing the results of an experiment for inhibiting NSDHL and NADH conjugate using NAD+.
An activity assay was performed using a 96-well plate, and an experiment was performed after adding an inhibitor to each well at the final concentrations of 200 μM≤1 μM. Particularly, 50 μl of 16 μM NSDHL, 50 mM HEPES, 20% glycerol were added to each well, and then 50 ul of 50 μM NADH was added to each well, followed by reaction at room temperature for 10 minutes. The fluorescence level of each well was measured using SpectraMax M5 (Molecular Devices) equipment (Ex: 340 nm, Em: 460 nm). The values were corrected by separately measuring the absorbance of the compound and the buffer solution, and the degree of inhibition of each compound against NSDHL was measured based on the NADH fluorescence at the same concentration without binding. IC50 (inhibitory concentration at 50%) was calculated using GraphPad Prism software.

Human-derived nicotinamide adenine dinucleotide phosphate-dependent steroid dehydrogenase (NSDHL), sequence (Q15738 whole entry): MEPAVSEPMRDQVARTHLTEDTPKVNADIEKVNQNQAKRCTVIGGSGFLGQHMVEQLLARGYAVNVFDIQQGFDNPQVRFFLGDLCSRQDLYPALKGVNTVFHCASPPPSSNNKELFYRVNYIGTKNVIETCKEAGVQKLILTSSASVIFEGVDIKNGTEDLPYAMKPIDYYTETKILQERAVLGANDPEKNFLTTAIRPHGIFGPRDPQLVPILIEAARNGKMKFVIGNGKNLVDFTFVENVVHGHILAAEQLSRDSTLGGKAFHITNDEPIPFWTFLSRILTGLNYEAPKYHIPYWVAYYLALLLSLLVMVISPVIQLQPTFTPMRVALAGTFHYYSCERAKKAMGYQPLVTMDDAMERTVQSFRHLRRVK

Row | Compound | IC50 [µM]
1 | O=C(O)CN1C(=O)/C(=C/c2cc(Br)ccc2OCc2ccccc2I)SC1=S [Example 5, (Z)-2-(5-(5-bromo-2-(2-iodobenzyloxy)benzylidene)-4-oxo-2-thioxothiazolidin-3-yl)acetic acid] | 27.1
2 | COc1cccc(OCc2ccccc2)c1/C=C1\SC(=S)N(CC(=O)O)C1=O [Example 3, (Z)-2-(5-(2-(benzyloxy)-6-methoxybenzylidene)-4-oxo-2-thioxothiazolidin-3-yl)acetic acid] | 19.9
3 | O=C(O)CN1C(=O)/C(=C/c2ccc(O)cc2OCc2ccccc2Br)SC1=S [Example 4, (Z)-2-(5-(2-(2-bromobenzyloxy)-4-hydroxybenzylidene)-4-oxo-2-thioxothiazolidin-3-yl)acetic acid] | 17.8

More lines, now with the values ahead:

Row | IC50 [µM] | Compound
4 | 12.8 | O=C(O)CN1C(=O)/C(=C/c2cn(-c3ccc(F)cc3)nc2-c2cccc(Cl)c2)SC1=S [Example 2, (Z)-2-(5-((3-(3-chlorophenyl)-1-(4-fluorophenyl)-1H-pyrazole-4-yl)methylene)-4-oxo-2-thioxothiazolidin-3-yl)acetic acid]
5 | 10.4 | O=C(O)CN1C(=O)/C(=C/c2cc(-c3ccc(F)cc3)ccc2OCc2ccc(C(=O)O)cc2)SC1=S [Example 1, (Z)-4-((3-((3-(carboxymethyl)-4-oxo-2-thioxothiazolidin-5-ylidene)methyl)-4′-fluorobiphenyl-4-yloxy)methyl)benzoic acid]
